Results reported in patent publication US20260235604A1, “A NOVEL MARKER FOR CARDIOMYOCYTES DEDIFFERENTIATION” (National University of Singapore, priority 2023, published 2026).

Columns and labels:
Type in all cases: cell-based, mouse
mTORC1 = assay: Western blot of GLUL, p-S6K1, p-4EBP1 in cultured ACMs with Asns KD; settings: Asn treatment of D4 Asns^KD ACMs
Protocol: Protein extraction was carried out using 6 M urea lysis buffer with 1 mM dithiothreitol, protease inhibitor and phosphatase inhibitor. For protein extraction from cultured ACMs and purified CMs, lysis buffer was added directly to the cells, followed by vigorous pipetting. For protein extraction from mouse heart apex, a piece of apex tissue resected from each mouse heart was weighted and submerged in 500 μL lysis buffer in a 2 mL Sarstedt tube. One single stainless-steel bead (diameter 5 mm) was added to each tube containing apex tissue in lysis buffer. The TissueLyser II was assembled as per manufacturer's guidelines with pre-chilled adapters. The apex tissue was homogenised for 20 s at 30 Hz for two rounds, until no visible tissue debris was observed. Protein quantification was done using Bio-Rad Protein Assay Kit I as per manufacturer's guidelines.
The protein lysate with loading buffer was heated at 60° C. for 10 mins before loading onto a 10% SDS-polyacrylamide gel. After transfer, the blotting membrane was blocked in 5% blotting-grade blocker in TBST for 1 hour, followed by primary antibody incubation at 4° C. overnight and secondary antibody incubation at room temperature (R.T.) for 1 hour. The blot was detected by ECL substrate reaction and exposure on a ChemiDoc™ touch imaging system (BioRad). The quantification of protein expression level was performed using Fiji software. […]

cultured ACMs [1] = assay: Propidium iodide (PI) staining of cultured ACMs (CM death); settings: eliminating Asn in cultured ACMs
Protocol: Purified CMs were either directly lysed for RNA and protein extraction, or pre-plated on uncoated cell culture dishes for 1 hour to further remove non-CMs before culture on laminin-coated cell culture plates. During the first two days of culturing (D0 and D1), 1 µM of blebbistatin (Sigma-Aldrich) was added as a specific myosin II inhibitor (see Kabaeva Z et al., 2008). Starting from D2, blebbistatin was removed to accelerate morphological changes of CMs. 10% FBS was included in the culture media during the whole culture procedure, and the small colonies of non-CMs were carefully scraped under a microscope and washed away daily. Images of CMs were captured using the EVOS® FL Cell Imaging System (Thermo Fisher) under different channels. PI (final concentration 1 μg/mL) and Hoechst (final concentration 1 μg/mL) was added at a to cultured ACMs, and incubated at 37° C. for 45 mins. The ACMs were immediately imaged by Nikon inverted microscope Eclipse Ti-E. For each well in the cell cultured dishes, 8 to 9 random regions were imaged. PI+ CMs were quantified using Fiji software.

cultured ACMs [2] = assay: RT-qPCR of cell cycle genes in cultured ACMs
Protocol: For freshly isolated mouse CMs, a total number of about 120,000 CMs (⅛ of total CMs) per heart were lysed by 1 mL TRIzol™ Reagent. To lyse cultured CMs, 1 mL TRIzol™ Reagent was added to each well in 12-well and 6-well cell culture plates. Total RNA extraction was performed as per manufacturer's protocol.
cDNA was synthesised with oligo dT and random primers using the qScript™ cDNA Synthesis Kit. qPCR was performed with PerfeCTa® Low Rox™ ToughMix™ (Quantabio) on a real-time PCR system. All qPCR data were normalised to the expression of housekeeping genes Gapdh and Rplp0.

Row | Molecule | p-4EBP1 (mTORC1) | p-S6K1 (mTORC1) | cell death (cultured ACMs [1]) | expression of cell cycle genes (Cdk1, Mki67, Aukrb) (cultured ACMs [2])
1 | NC(=O)C[C@H](N)C(=O)O [Asn, asparagine] | restored | promoted |  | 
2 | L-asparaginase (protein, UniProt P00805 23-348, looked up) L-asparaginase 2: LPNITILATGGTIAGGGDSATKSNYTVGKVGVENLVNAVPQLKDIANVKGEQVVNIGSQDMNDNVWLTLAKKINTDCDKTDGFVITHGTDTMEETAYFLDLTVKCDKPVVMVGAMRPSTSMSADGPFNLYNAVVTAADKASANRGVLVVMNDTVLDGRDVTKTNTTDVATFKSVNYGPLGYIHNGKIDYQRTPARKHTSDTPFDVSKLNELPKVGIVYNYANASDLPAKALVDAGYDGIVSAGVGNGNLYKSVFDTLATAAKTGTAVVRSSRVPTGATTQDAEVDDAKYGFVASGTLNPQKARVLLQLALTQTKDPQQIQQIFNQY |  |  | did not induce more cell death | diminished
